Data taken from patent publication US20070218456A1, “CELLULAR ASSAYS FOR SIGNALING RECEPTORS” (INVITROGEN CORPORATION, priority 2006, published 2007).
Converted amounts (≈) assume the structure as drawn.

Tested on: T-REx™-G2A-NFAT-bla Freestyle™293F cells
Assay: T-REx G2A NFAT-bla Freestyle 293F beta-lactamase reporter assay (inducer dose response)
Settings: for EC50: Homo sapiens, FreeStyle 293-F
Method: In order to control the levels of G2A expression, G2A was placed under the control of an inducible promoter using Invitrogen's T-REx™ system. To again assess feasibility, pcDNA 5 G2A/TO was transiently transfected into CRE-bla Freestyle™ and NFAT-bla Freestyle™ cell lines stably expressing the T-REx™ Tet repressor plasmid (pcDNA6/TR; e.g., catalog# V1025-20, Invitrogen, Carlsbad, Calif.). The transfected cells were then treated with 10 ug/mL, 1 ug/mL, or 100 ng/mL tetracycline for 24 h to induce G2A expression. […] Stable pools of cells were created in both the TR CRE-bla and TR NFAT-bla Freestyle™293F backgrounds.
Stimulation Kinetics—Selected pools of both CRE-bla and NFAT-bla T-REx™ G2A Freestyle™ cells were stimulated with tetracycline for 3, 4, 5, or 24 h and loaded for 2 h with 1 μM LiveBLAzer™-FRET B/G substrate.
To improve the balance between tetracycline-induced signaling and cell death by testing shorter induction times, lower tetracycline concentrations and altered culture conditions were utilized to promote cell health. A 16 h tetracycline stimulation time was attempted on the pools from the first sort. Cells were plated at 10,000 cells/well 24 hours prior to assay in DMEM+10% dFBS and incubated at 37° C./5% CO2 until time of assay. The cells were stimulated for 16 hours (e.g., overnight) with a dilution series of the tetracycline. Following stimulation, the cells were loaded for 2 hours at room temperature in the dark with LiveBLAzer™-FRET B/G loading solution containing 1 μM substrate. This assay was done in Poly-D-Lysine coated plates.
Since G2A has no known agonists, doxycycline and tetracycline were compared as inducers of the assay. An antibiotic selected pool of cells were plated at 10,000 cells/well 24 hours prior to assay in DMEM+10% dFBS and incubated at 37° C./5% CO2 until time of assay. The cells were stimulated with a dilution series of each compound for 16 hours at 37° C./5% CO2 and loaded for 2 hours at room temperature in the dark with LiveBLAzer™-FRET B/G loading solution containing 1 μM substrate.
Cell Density/well—The influence of cell-plating density on assay performance was tested to find the density giving the best response and Z′ while maintaining the expected pharmacology. Cells were plated 24 hours prior to the assay at the densities indicated in FIG. 14 in DMEM+10% dFBS and incubated at 37° C./5% CO2 until the time of assay. The cells were stimulated for 16 hours at 37° C./5% CO2 with a dilution series of the doxycycline. After incubation, the cells were loaded for 2 hours at room temperature in the dark with LiveBLAzer™-FRET B/G loading solution containing 1 μM substrate.
DMSO Tolerance—Tests were performed related to assay performance as a function of DMSO concentration to determine the robustness of the assay to the range of DMSO challenge routinely encountered during high-throughput screening. Dose response curves were performed in the presence of 0%, 0.25%, 0.5%, or 1% DMSO. Cells were plated at 10,000 cells/well 24 hours prior to assay in DMEM+10% dFBS and incubated at 37° C./5% CO2 until time of assay. After incubation, DMSO was added to the wells to final concentrations of 0%, 0.25%, 0.5% and 1% DMSO. The cells were stimulated for 16 hours with a dilution series of the doxycycline. Following stimulation, the cells were loaded for 2 hours at room temperature in the dark with LiveBLAzer™-FRET B/G loading solution containing 1 μM substrate.
The substrate loading times were varied to find the time for an optimal assay performance. Cells were plated at 10,000 cells/well 24 hours prior to assay in DMEM+10% dFBS and incubated at 37° C./5% CO2 until time of assay. After incubation, DMSO was added to the wells to final concentration of 0.5%.

[1] = 60 min substrate loading, 10,000 cells/well, 0.5% DMSO, 16 h
[2] = 90 min substrate loading, 10,000 cells/well, 0.5% DMSO, 16 h
[3] = 120 min substrate loading, 10,000 cells/well, 0.5% DMSO, 16 h
[4] = representative data, 16 h, 0.5% DMSO, 2 h loading

SMILES: C[C@H]1c2cccc(O)c2C(=O)C2=C(O)[C@]3(O)C(=O)C(C(N)=O)=C(O)[C@@H](N(C)C)[C@@H]3[C@@H](O)[C@@H]21 [Doxycycline]
- RR (Max) (0.0% DMSO, 10,000 cells/well, 16 h): 6.9
- RR (Max) (0.25% DMSO, 10,000 cells/well, 16 h): 7.2
- RR (Max) (0.50% DMSO, 10,000 cells/well, 16 h): 6.5
- RR (Max) (1.00% DMSO, 10,000 cells/well, 16 h): 5.4
- RR (Max) (1,250 cells/well, clone #20, 16 h, 0.5% DMSO): 3.51
- RR (Max) (2,500 cells/well, clone #20, 16 h, 0.5% DMSO): 4.8
- RR (Max) [1]: 4.5
- RR (Max) (5,000 cells/well, clone #20, 16 h, 0.5% DMSO): 5.93
- RR (Max) [2]: 6.5
- RR (Max) [3]: 6.5
- RR (Max) (10,000 cells/well, clone #20, 16 h, 0.5% DMSO): 7.7
- RR (Max) (Average of DR 1-3): 5.77
- RR (Max) (DR 1 (reproducibility, separate day)): 5.36
- RR (Max) (DR 2 (reproducibility, separate day)): 5.95
- RR (Max) (DR 3 (reproducibility, separate day)): 5.99
- RR (Max) (Fresh cells taken from culture): 5.99
- RR (Max) (Frozen cells thawed immediately before use): 2.48
- EC50 [1]: 0.162 ng/mL (≈ 0.364 nM)
- EC50 [2]: 0.151 ng/mL (≈ 0.34 nM)
- EC50 [3]: 0.172 ng/mL (≈ 0.388 nM)
- EC50 (16 h, 0.0% DMSO, 10,000 cells/well): 0.159 ng/mL (≈ 0.358 nM)
- EC50 (16 h, 0.25% DMSO, 10,000 cells/well): 0.197 ng/mL (≈ 0.444 nM)
- EC50 (16 h, 0.50% DMSO, 10,000 cells/well): 0.172 ng/mL (≈ 0.388 nM)
- EC50 (16 h, 1.00% DMSO, 10,000 cells/well): 0.187 ng/mL (≈ 0.422 nM)
- EC50 (16 h, 1,250 cells/well, clone #20, 16 h, 0.5% DMSO): 0.305 ng/mL (≈ 0.687 nM)
- EC50 (16 h, 2,500 cells/well, clone #20, 16 h, 0.5% DMSO): 0.216 ng/mL (≈ 0.485 nM)
- EC50 (16 h, 5,000 cells/well, clone #20, 16 h, 0.5% DMSO): 0.199 ng/mL (≈ 0.447 nM)
- EC50 (16 h, 10,000 cells/well, clone #20, 16 h, 0.5% DMSO): 0.291 ng/mL (≈ 0.655 nM)
- EC50 (16 h, DR 1 (reproducibility, separate day), 10,000 cells/well, 0.5% DMSO): 0.246 ng/mL (≈ 0.553 nM)
- EC50 (16 h, DR 2 (reproducibility, separate day), 10,000 cells/well, 0.5% DMSO): 0.0963 ng/mL (≈ 0.217 nM)
- EC50 (16 h, DR 3 (reproducibility, separate day), 10,000 cells/well, 0.5% DMSO): 0.0533 ng/mL (≈ 0.12 nM)
- EC50 (16 h, Fresh cells taken from culture, 10,000 cells/well): 0.0533 ng/mL (≈ 0.12 nM)
- EC50 (16 h, Frozen cells thawed immediately before use, 10,000 cells/well, 16 h): > 0.985 ng/mL
- EC50 (Average of DR 1-3): 0.132 ng/mL (≈ 0.297 nM)
- EC50 (antibiotic selected pool, 10,000 cells/well, 16 h stimulation, 2 h loading): 1.6 ng/mL (≈ 3.6 nM)
- EC50 [4]: 0.05 ng/mL (≈ 0.113 nM)
- RR (Max) (antibiotic selected pool, 10,000 cells/well, 16 h stimulation): 3.3
- times more potent than tetracycline (antibiotic selected pool, 16 h): ~30 times
- EC100 [4]: 2.2 ng/mL
